This is an account of results in patent US11351178B2, “Selective HDAC6 inhibitors” (ITALFARMACO S.P.A., priority 2017, dated 2022).

One data set deals with T1, HDAC5 (Homo sapiens, UniProt Q9UQL6).
T1 construct: purchased BPS 50005
Put plainly: Enzymatic test HDAC5. The data set is classed as biochemical. Conditions: Table 3. On the procedure:
(§1) After a period of incubation at 30° C. (incubation times vary for different isoforms and are shown in table 1) 25 μL of solution containing the substrate were added. As substrate, FLUOR DE LYS® deacetylase substrate (Enzo Life Sciences, cat #BML-K1104, FdL), FLUOR DE LYS®-Green substrate (Enzo Life Sciences, cat #BML-K1572 FdL_G) and trifluoroacetyl-L-lysine (Tfal)-2× concentrated solution in 25 mM Tris-HCl, pH 8, 130 mM NaCl 0.05% Tween-20 10% glycerol) were used. Following a reaction period at 30° C.

A further data set has as its target T2, recombinant human HDAC6 (Homo sapiens, UniProt Q9UBN7).
T2 sequence (Q9UBN7 1-1215): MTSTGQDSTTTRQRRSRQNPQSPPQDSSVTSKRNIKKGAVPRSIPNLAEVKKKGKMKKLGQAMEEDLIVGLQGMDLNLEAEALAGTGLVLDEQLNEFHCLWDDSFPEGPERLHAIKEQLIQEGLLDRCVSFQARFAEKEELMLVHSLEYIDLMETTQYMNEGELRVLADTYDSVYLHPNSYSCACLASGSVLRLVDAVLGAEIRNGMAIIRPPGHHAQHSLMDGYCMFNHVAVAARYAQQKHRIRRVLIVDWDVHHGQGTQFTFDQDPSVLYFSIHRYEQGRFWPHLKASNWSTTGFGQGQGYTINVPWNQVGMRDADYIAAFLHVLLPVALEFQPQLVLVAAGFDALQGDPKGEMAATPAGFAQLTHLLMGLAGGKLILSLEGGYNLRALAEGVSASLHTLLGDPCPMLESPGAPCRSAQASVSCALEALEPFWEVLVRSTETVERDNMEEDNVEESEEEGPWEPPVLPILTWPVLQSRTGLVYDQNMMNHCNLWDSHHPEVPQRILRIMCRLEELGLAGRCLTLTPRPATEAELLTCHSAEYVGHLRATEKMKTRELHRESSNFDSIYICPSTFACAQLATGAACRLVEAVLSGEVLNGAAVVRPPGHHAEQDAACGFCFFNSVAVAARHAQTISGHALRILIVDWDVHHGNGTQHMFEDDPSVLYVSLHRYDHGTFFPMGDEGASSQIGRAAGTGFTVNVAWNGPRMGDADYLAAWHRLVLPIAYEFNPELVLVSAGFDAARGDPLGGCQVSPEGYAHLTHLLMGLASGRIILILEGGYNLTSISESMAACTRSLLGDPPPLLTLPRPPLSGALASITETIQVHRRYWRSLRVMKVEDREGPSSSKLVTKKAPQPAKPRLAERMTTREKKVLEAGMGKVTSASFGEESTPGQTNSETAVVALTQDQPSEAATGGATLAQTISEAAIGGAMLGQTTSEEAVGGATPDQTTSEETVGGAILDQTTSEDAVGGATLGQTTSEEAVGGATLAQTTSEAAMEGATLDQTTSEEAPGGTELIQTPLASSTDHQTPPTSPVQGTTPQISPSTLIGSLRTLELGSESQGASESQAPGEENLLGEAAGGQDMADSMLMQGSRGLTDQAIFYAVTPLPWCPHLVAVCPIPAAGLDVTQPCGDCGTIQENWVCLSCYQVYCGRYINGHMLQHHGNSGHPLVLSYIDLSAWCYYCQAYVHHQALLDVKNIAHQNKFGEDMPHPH
Put plainly: Enzymatic screening on recombinant human HDAC6. The data set is classed as biochemical. Conditions: read-out: HDAC6 IC50. The essentials:
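Step one: pre-incubate recombinant human HDAC with test compound at 30 °C, with duration set per isoform. Step two: add fluorogenic-type acetyl-lysine substrate (FLUOR DE LYS, its Green variant, or trifluoroacetyl-L-lysine), 2× concentrated in Tris-HCl pH 8 buffer with NaCl, Tween-20 and glycerol. Step three: react at 30 °C.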

For the next data set, the target named is T3, HDAC8 (Homo sapiens, UniProt Q9BY41).
T3 construct: purchased BPS 50008
T3 sequence (Q9BY41 1-377): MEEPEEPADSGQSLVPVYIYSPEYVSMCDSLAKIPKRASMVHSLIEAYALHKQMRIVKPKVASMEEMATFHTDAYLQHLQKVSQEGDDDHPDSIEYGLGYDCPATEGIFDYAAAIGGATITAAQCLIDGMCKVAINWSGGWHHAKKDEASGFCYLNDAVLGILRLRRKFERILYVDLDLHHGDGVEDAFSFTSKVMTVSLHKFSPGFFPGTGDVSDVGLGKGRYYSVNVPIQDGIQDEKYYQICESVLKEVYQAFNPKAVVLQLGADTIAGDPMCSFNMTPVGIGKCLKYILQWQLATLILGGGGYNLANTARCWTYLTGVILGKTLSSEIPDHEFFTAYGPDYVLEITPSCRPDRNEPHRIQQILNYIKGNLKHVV
The data set can be described thus: Enzymatic test HDAC8. It is filed as biochemical. Conditions: Table 3.

The next data set is described as follows: Stability in rat plasma. It is filed as in vitro ADME. Conditions: after 4 hours, 37° C. In outline:
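Compounds incubated at 37° C in rat or human plasma at 50 μM (UV/HPLC) or 1 or 2 μM (LC-MS/MS) for 0–4 h. Reaction stopped with acidified acetonitrile on ice; percent remaining versus initial amount and plasma half-life calculated.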

In a further data set the target is T4, recombinant human HDAC3 (Homo sapiens, UniProt O15379).
T4 construct: purchased BPS 50003
The data set can be described thus: Enzymatic screening on recombinant human HDAC3. It is filed as biochemical. Conditions: Table 3. The protocol: Enzymatic activity on recombinant human HDAC6 and HDAC3 was evaluated (Table 2) for each synthesized compound.
as §1

The target of another data set is T5, HDAC1 (Homo sapiens, UniProt Q13547).
T5 construct: purchased BPS 50051
Put plainly: Enzymatic test HDAC1. The data set is classed as biochemical. Conditions: Table 3.

Data set [1] is described as follows: Stability to Phase I metabolism in rat S9 liver fraction. It is filed as in vitro ADME. Conditions: after 90 min, 37° C. In outline: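 Phase I stability in human and rat hepatic S9 at 37 °C, sampled up to 90 min. Samples were stopped with acidified acetonitrile on ice, then quantified by HPLC-UV or LC-MS/MS.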

Like-named read-outs stand apart in the source and are kept apart here.

T5 sequence (Q13547 whole entry): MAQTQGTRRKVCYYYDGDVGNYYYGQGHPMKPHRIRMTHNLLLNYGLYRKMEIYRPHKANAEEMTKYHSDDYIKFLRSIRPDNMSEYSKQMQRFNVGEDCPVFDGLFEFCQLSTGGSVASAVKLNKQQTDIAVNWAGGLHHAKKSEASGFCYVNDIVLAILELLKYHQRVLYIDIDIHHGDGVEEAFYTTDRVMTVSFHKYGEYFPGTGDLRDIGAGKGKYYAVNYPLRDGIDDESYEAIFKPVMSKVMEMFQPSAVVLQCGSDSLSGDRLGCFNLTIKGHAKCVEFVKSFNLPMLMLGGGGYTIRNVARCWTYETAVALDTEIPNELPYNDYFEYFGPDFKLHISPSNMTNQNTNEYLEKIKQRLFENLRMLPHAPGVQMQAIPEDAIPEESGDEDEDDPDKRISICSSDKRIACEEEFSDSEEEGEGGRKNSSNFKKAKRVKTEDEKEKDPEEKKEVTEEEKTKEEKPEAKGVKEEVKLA
T4 sequence (O15379 whole entry): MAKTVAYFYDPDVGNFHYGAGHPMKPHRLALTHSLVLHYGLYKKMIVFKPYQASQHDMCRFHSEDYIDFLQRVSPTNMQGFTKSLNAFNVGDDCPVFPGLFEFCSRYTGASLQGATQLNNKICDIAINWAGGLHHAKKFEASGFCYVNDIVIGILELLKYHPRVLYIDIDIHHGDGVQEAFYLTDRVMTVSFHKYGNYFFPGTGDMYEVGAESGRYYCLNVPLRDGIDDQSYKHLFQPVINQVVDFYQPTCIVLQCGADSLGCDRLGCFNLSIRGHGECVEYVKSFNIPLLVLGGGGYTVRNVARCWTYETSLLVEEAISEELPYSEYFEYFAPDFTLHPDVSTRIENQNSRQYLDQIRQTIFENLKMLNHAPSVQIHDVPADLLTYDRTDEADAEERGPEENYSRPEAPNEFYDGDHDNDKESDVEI
T4 sequence (Q9Y618 395-489 partner limits assumed): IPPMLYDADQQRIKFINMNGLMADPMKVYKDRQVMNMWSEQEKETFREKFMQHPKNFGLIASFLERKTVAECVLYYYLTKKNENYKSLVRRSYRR
T1 sequence (Q9UQL6 656-1122 limits assumed): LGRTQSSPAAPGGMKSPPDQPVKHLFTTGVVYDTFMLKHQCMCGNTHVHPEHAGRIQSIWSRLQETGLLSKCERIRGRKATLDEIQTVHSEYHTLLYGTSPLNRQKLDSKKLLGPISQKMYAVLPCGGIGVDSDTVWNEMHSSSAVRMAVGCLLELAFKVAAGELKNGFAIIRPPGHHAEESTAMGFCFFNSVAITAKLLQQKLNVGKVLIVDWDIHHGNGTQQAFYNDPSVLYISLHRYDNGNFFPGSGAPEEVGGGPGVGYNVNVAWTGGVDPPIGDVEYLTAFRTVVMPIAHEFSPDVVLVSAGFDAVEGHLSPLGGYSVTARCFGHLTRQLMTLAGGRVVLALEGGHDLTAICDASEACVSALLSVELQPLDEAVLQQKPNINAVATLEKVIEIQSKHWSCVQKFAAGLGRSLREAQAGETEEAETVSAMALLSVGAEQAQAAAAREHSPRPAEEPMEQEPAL

Turning to `O=C(NO)c1cc(F)c(Cn2nnc(-c3cccs3)n2)c(F)c1` [comp. 65, 3,5-difluoro-4-[[5-(2-thienyl)tetrazol-2-yl]methyl]benzenecarbohydroxamic acid], the 50% inhibitory concentration (IC50) (commonly the concentration that inhibits the measured activity by half) turned out to be 1.19 µM against HDAC5; 0.006 µM at recombinant human HDAC6 (Table 2); 0.006 µM at recombinant human HDAC6 (Table 3); 1.08 µM at HDAC8; 1.86 µM at recombinant human HDAC3; 2.41 µM at HDAC1. In addition, the “residual percentage in rat plasma” value in the data set “Stability in rat plasma” worked out at 88%. Moreover, the “residual percentage in rat S9 fraction” value in data set [1] was found to be 8%.
As for `CCN(CC)S(=O)(=O)c1cccc(-c2nnc(Sc3ccc(C(=O)NO)cc3)n2C)c1` [comp. 66, 4-[[5-[3-(diethylsulfamoyl)phenyl]-4-methyl-1,2,4-triazol-3-yl]sulfanyl]benzenecarbohydroxamic acid], the IC50 against HDAC5 was found to be 0.325 µM; at recombinant human HDAC6 (Table 2) it was 0.006 µM; at recombinant human HDAC6 (Table 3) it was 0.006 µM; against HDAC8, 0.419 µM; at recombinant human HDAC3 it was 0.921 µM; at HDAC1, 0.747 µM. Further, the “residual percentage in rat plasma” value in “Stability in rat plasma” came to 66%. Further, the “residual percentage in rat S9 fraction” value in data set [1] came out at 54%.
For the compound `CN(C)c1cccc(-c2nnc(Sc3c(F)cc(C(=O)NO)cc3F)n2C)c1` [comp. 80, 4-[[5-[3-(dimethylamino)phenyl]-4-methyl-1,2,4-triazol-3-yl]sulfanyl]-3,5-difluoro-benzenecarbohydroxamic acid], the IC50 against HDAC5 worked out at 1.28 µM; at recombinant human HDAC6 (Table 2), 0.016 µM; on recombinant human HDAC6 (Table 3), 0.016 µM; against HDAC8 it was 0.548 µM; on recombinant human HDAC3 it was 1.87 µM; against HDAC1, 4.64 µM. The “residual percentage in rat plasma” value in the data set “Stability in rat plasma” came to 77%. Also, in data set [1], the “residual percentage in rat S9 fraction” value is reported as 32%.
In the case of `Cc1cc(-c2nnc(Sc3ccc(C(=O)NO)cc3)n2C)nn1C` [comp. 85, 4-[[5-(1,5-dimethylpyrazol-3-yl)-4-methyl-1,2,4-triazol-3-yl]sulfanyl]benzenecarbohydroxamic acid], the IC50 against HDAC5 worked out at 0.559 µM; on recombinant human HDAC6 (Table 2), 0.005 µM; on recombinant human HDAC6 (Table 3), 0.005 µM; on HDAC8, 0.216 µM; at recombinant human HDAC3, 0.339 µM; on HDAC1, 0.469 µM. The “residual percentage in rat plasma” value in the data set “Stability in rat plasma” was 76%. In data set [1], the “residual percentage in rat S9 fraction” value worked out at 75%.
For the compound `Cn1c(Sc2c(F)cc(C(=O)NO)cc2F)nnc1C(c1ccccc1)c1ccccc1` [comp. 98, 4-[(5-benzhydryl-4-methyl-1,2,4-triazol-3-yl)sulfanyl]-3,5-difluoro-benzenecarbohydroxamic acid], the IC50 against HDAC5 came to 2.66 µM; on recombinant human HDAC6 (Table 2), 0.061 µM; at recombinant human HDAC6 (Table 3), 0.061 µM; against HDAC8, 0.186 µM; on recombinant human HDAC3, 8.93 µM; at HDAC1, 1.01 µM. Besides, the “residual percentage in rat plasma” value in “Stability in rat plasma” was found to be 89%. Further, the “residual percentage in rat S9 fraction” value in data set [1] came to 88%.
